Data on 2 compounds can be found in patent publication US8530467B2, “Benzoimidazole compounds and uses thereof” (Neomed Institute, priority 2009, dated 2013).

What all share (assay type): cell-based
The target in assay [1] is T1, hP2X3 (human Purinergic P2X receptors subtype 3) (Homo sapiens, UniProt P56373).
T1 construct: expressed in transfected cells
T1 sequence (P56373 1-397): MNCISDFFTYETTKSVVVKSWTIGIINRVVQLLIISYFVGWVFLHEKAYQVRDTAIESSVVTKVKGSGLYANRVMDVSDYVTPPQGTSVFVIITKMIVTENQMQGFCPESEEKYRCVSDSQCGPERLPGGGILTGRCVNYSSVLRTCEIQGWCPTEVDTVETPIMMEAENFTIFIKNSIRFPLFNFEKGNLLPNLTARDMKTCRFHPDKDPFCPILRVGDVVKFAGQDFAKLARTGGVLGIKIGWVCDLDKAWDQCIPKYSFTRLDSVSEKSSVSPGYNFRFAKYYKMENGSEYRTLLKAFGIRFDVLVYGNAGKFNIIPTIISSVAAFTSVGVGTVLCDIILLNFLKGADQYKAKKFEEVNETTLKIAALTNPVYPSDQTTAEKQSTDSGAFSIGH
Briefly: Fluo-4 calcium mobilization assay on FDSS7000, ATP as agonist (Method 1). The settings on record: RLE cells stably expressing hP2X3; 2 uM ATP; 20 min preincubation; read-out: Human P2X3 IC50 (μM) Method 1. The procedure:
(§1) The antagonist properties of compounds in the present invention were assayed as inhibitors of intracellular calcium increase induced by activation of hP2X3 (human Purinergic P2X receptors subtype 3, accession number AB016608 for clone A and accession number NM_002559 for clone B), expressed in RLE cells (rat liver […], ATCC. The RLE/hP2X3 cells were grown in William's medium 1× (Gibco, 12551-032), supplemented with 10% Fetal bovine serum (Wisent, 090850), 2 mM L-Glutamine (Wisent, 609-065-EL), and 600 μg/mL Geneticin G-418 (Wisent, 61234) in a humidified incubator (5% CO2 and 37° C.).
(§2) In one assay, Fluo-4 assay on FDSS7000 (Hamamatsu) was performed using cryopreserved RLE cells stably expressing hP2X3 plated in 384 well plates, 24 hr before the experiment at a density appropriate for obtaining the desired final confluence. After processing the cell plates with Fluo-4 and performing a subsequent incubation followed by washing steps, a double addition was carried out. The first addition included the test compounds diluted in HBSS buffer containing 2 mM CaCl2 preincubated for 20 min before a second addition. The second addition included 2 uM of ATP. Calcium mobilization was measured with the FDSS7000 over a time lapse of 3 min, and fluorescent counts were exported for analysis. […] Hill coefficients and % inhibitions can also be determined.

Assay [2] concerns the target T1, hP2X3 (human Purinergic P2X receptors subtype 3). Briefly: Fluo-4 calcium mobilization assay, α,β methylene-ATP as agonist (Method 2). The conditions noted are these: RLE cells stably expressing hP2X3; α,β methylene-ATP instead of ATP; read-out: Human P2X3 IC50 (μM) Method 2. The procedure:
as §1
as §2, with “The second addition included 2 uM of ATP.” left out, “determined. […]” for “determined.”

The target is the same in assay [3]. Briefly: FLIPR FLUO-4 AM calcium assay, α,β-methylene-ATP as agonist (Method 3). The conditions noted are these: hP2X3-expressing RLE cells, 500 nM α,β-methylene-ATP, read-out: Human P2X3 IC50 (μM) Method 3. The procedure:
as §1
In a third assay, hP2X3-expressing cells were maintained in culture and the day before the experiment, the cells were plated in 384-black polylysine coated plates (Becton/Dickinson, 356663) at 8000 cells/well in 50 μL/well in William's medium without Geneticin, and then placed in an incubator for 24 hr. On the day of the experiment, the cells and test compounds were prepared as follows. […] Experiments were initiated by measuring a baseline fluorescence reading for 10 sec, followed by adding 12.5 μL of compounds and data sampling for a total 280 seconds. […] During entire experiment, fluorescence emission was read by the FLIPR on board CCD camera using filter with emission wavelength of 520-545 nm. […] Hill coefficients and % inhibitions can also be determined.

On to `CNC(=O)c1cc(F)c(-c2nc3cc(C)ccc3n2C[C@H]2CN(C(=O)OC)CCO2)c(F)c1` [Example 3, (S)-methyl 2-((2-(2,6-difluoro-4-(methylcarbamoyl)phenyl)-5-methyl-1H-benzo[d]imidazol-1-yl)methyl)morpholine-4-carboxylate], for which the IC50 in assay [1] was determined as 0.007 µM; in assay [2], 0.014 µM; in assay [3], 0.016 µM.

For the compound `CNC(=O)c1cc(F)c(-c2nc3cc(C)ccc3n2C[C@@H]2CN(C(=O)OC)CCO2)c(F)c1` [Example 5, (R)-methyl 2-((2-(2,6-difluoro-4-(methylcarbamoyl)phenyl)-5-methyl-1H-benzo[d]imidazol-1-yl)methyl)morpholine-4-carboxylate], in assay [3], the IC50 is 0.016 µM.
